The values that follow come from a melting point compilation (Tetko et al.; mined from patent text by program, amines drawn as free bases though some values may be those of a salt).

What is called melting point is the temperature of the solid-liquid transition.

The structures appear in SMILES notation.

In turn, `C=C(C(=O)OCC)c1cc(-c2cc3c(cc2C)C(C)(C)CCC3(C)C)ccc1OCOC` had a melting point of 100 to 101 °C.
Compound `CCC(CC)O[C@@H]1C=C(C(=O)OC)C[C@H](CC(O)CN=[N+]=[N-])[C@H]1NC(C)=O` (stereo partly specified) displayed a melting point of 92 to 93 °C.
In the case of `CC(=O)Nc1ccccc1CC1NC(=O)NC1=O` (stereo unspecified) it was 200 to 202 °C; in that of `CC(C)(C)C(=O)Oc1ccccc1C(=O)c1ccccc1OC(=O)C(C)(C)C`, 106 to 108 °C.
`Cc1nc(-c2ccc(OCC(C)(C)C)c([N+](=O)[O-])c2)sc1C(=O)O` came in with a melting point of 242 to 245 °C.
Under `CCOCc1nc2c(N)nc3cc(-c4cccnc4)ccc3c2n1CC(C)C` stands 180 to 182 °C.
In the case of `CSc1nc(Cl)c([N+](=O)[O-])c(N2CCS(=O)CC2)n1`, the melting point is 176 to 178 °C.
Regarding `COC(=O)C1=Cc2cccc(C3CCN(S(=O)(=O)c4ccc(C)cc4)CC3)c2CCC1`, the melting point fell in the range of 169 to 173 °C.
Under `Cc1csc(N2CCN(Cc3ccc(C(=O)Nc4ccc(F)cc4)cc3)C2=O)n1` stands 206 to 207 °C; under `COc1ccc(S(=O)(=O)N2C(=O)[C@@](c3ccccc3OC)(N3C[C@H](OC(=O)N(C)C)C[C@H]3C(=O)N(C)C)c3cc(Cl)ccc32)c(OC)c1`, 138 to 140 °C; under `CC(C)C(=CCS(=O)(=O)c1ccccc1)C(C)C`, 50 °C.
Consider `CC(C)(C)OC(=O)N[C@H]1CC[C@H](CCN2CCN(c3cccc4c3CCC4)CC2)CC1`, for which the melting point was 115 to 118 °C.
In the case of `COC(=O)Cc1ccc(CNC(=O)C2Cc3ccccc3N2S(=O)(=O)c2ccc(-c3ccc(F)cc3F)cc2)cc1` (stereo unspecified) it was 68 to 72 °C.
In the case of `COc1ccc2[nH]cc(CCN3CCC(Oc4ccc(F)cc4)CC3)c2c1`, the melting point is 132 to 134 °C.
The compound `Cc1c(Cc2cccnc2)ccc2ccc(C(=O)O)cc12` came in with a melting point of 210 to 211 °C.
Compound `Fc1cc(Cl)c2nc(Cl)sc2c1N=C=S` had a melting point of 80 to 81 °C.
With `COc1ccc(C(=O)Nc2ccc(-c3ncc(-c4ccc(NC(=O)C5CCCCCC5)cc4)[nH]3)cc2)cc1`, the melting point was in the range of 311 to 313 °C.
The compound `COc1ccc(C2c3[nH]c4ccccc4c3CCN2C(=O)C=Cc2ccc(C(F)(F)F)cc2)cc1` (stereo unspecified) gave a melting point of 130 to 135 °C.
On to `O=C1N(Cc2sccc2Cl)c2ccccc2C12COc1cc3c(cc12)OCO3` (stereo unspecified), for which the melting point was 161 to 163 °C.
The compound `O=C1Cc2cc3c(cc2CCN1Cc1ccccc1)OCO3` came in with a melting point of 141 to 142 °C.
In the case of `Cc1cccc2oc(C(O)[C@H](C)NC(=O)OCc3ccccc3)nc12` (stereo partly specified) it was 98 °C.
